How the values were obtained:
Red cells = assay: Oxygen carrying ability (oxygen content by CO-oximeter); format: cell-based, human; settings: cells subjected to CO-treatment
Experimental: A semi-quantitative measure of oxygen carrying ability by DTBP cross-linked and reversed cells was performed. Red cells cross linked with 5 mM DTBP for different incubation times and cells reversed with DTT (see above) were processed through a membrane oxygenator to replace CO with oxygen. Oxygen saturation of the cells was measured using a CO-oximeter. After the oxygenation, cells were subjected to deoxygenation under a stream of nitrogen for 30 min. Percentage oxygen was measured again by the CO-oximeter. Oxygen binding and releasing properties for cross-linked, reversed and normal cells were compared.
We measured oxygen content (Vol%O2) of cells subjected to cross-linking and reversal with a CO-oximeter 282. […] CO-treated and cross-linked cells with 5 mM DTBP for 5 h, which underwent re-oxygenation in the membrane oxygenator had oxygen content of 7.3 Vol%O2.

erythrocytes [1] = assay: Methemoglobin formation during freeze-drying; format: cell-based; settings: CO-treated erythrocytes, FIG. 1
Excerpt: Freeze-drying of hemoglobin leads to the formation of significant amount of methemoglobin. Circular dichroism studies for samples of hemoglobin freeze-dried with or without protectant have shown that the absence of a protector weakly influences the confirmation in the vicinity of the heme and increases the helicity of protein chains (Thirion C et al., 1983). Freeze-drying hemoglobin without denaturing and oxidizing it was made possible by the use of carbohydrates (Labrude PB et al., 1980). […] Since red cell membrane is non-permeable to disaccharides and only lowly permeable to monosaccharides, this limits the use of carbohydrates as protectants for intracellular hemoglobin. We explored CO-treatment as a means to prevent methemoglobin formation during freeze-drying. CO-treatment stabilizes hemoglobin in the CO-hemoglobin form by liganding CO. […] To reverse the CO-treatment, a hollow fiber oxygenator can be used.

Human erythrocytes [2] = assay: 'gravity-driven' filtration assay of erythrocyte deformability (5 μm pore filter); format: cell-based
Experimental: The deformability of erythrocytes after crosslinking with diamide and its reversal with dithioerythritol is measured using a “gravity-driven” filtration assay. Diluted erythrocyte suspensions are passed through a 5 μm pore filter The relative filtration index is determined using the following expression: [formula] […] Human erythrocytes subjected to crosslinking with diamide and subsequent reversal of the crosslinking dithioeiythritol were passed through a 5 μm pore filter. Relative filtration index was determined.

Red blood cells [3] = assay: Metabolic viability: ATP content of red blood cells over time; format: cell-based, human; settings: cross-linked cells treated with 10 mM DTT prior to initial glucose exposure
Experimental: The metabolic viability of cross-linked cells was assayed by monitoring the production and depletion of ATP over time. DTBP cells were cross-linked in 5 mM DTBP 150 mM glucose for 5 hours at 4° C. The cells were then washed 3 times and incubated in 150 mM glucose for an additional 19 hrs. After washing to remove the glucose the cells were incubated at 4° C. in PBS for 72 hrs before being returned to 150 mM glucose for the final 24 hr incubation. At each time point cells were removed, washed, and spectrophotometrically assayed for ATP as described in the text. The glucose controls were cells treated in the same manor but without crosslinking, and the control cells are cells without exposure to glucose.

Red blood cells [4] = assay: Deformability measurements with an ektacytometer (Shear-scan, Osmo-scan); format: cell-based, human; settings: DTBP cross-linked cells after treatment with DTT; Osmo-scan
Experimental: Red blood cells were cross-linked with 5 mM DTBP for 1 h. Cross-linking was reversed with 10 mM DTT for 20 min. Deformability measurements were made with fresh untreated, cross-linked, and reversed cells as well as with untreated packed cells stored in CPDA-1 for 6 weeks at 4° C. The effects of cross-linking and reversal on red blood cell deformability were measured with an ektacytometer (Technicon).
The ektacytometer is a laser diffraction viscometer described in detail by Bessiss and Mohandas. Intact red blood cells and ghosts suspended in solution produce a diffuse circular laser diffraction pattern. The instrument takes advantage of the fact that when a shear force is applied to the solution crossing the beam the cells align in the direction of shear and begin deforming into uniformly oriented ellipsoids. The laser diffraction pattern then takes on an ellipsoidal shape oriented 90° from the major elliptical cell axis, with the ratio of the long axis to the short axis length determined by the degree of cell deformation. A signal proportional to mean cellular ellipticity is derived from photometric measurement of this laser diffraction pattern in the two axis directions and is designated the deformability index (DI).
Two types of deformability profiles were generated in the present experiments. […] Shear-scans were run with 40 μl of concentrated cell suspension (80% hematocrit) mixed with 3.0 ml of 3.1% (w/v) polyvinylpyrrolidone (P, av-MW 360 kD) solution containing 138 mM NaCl, 6.34 mM Na2HPO4, 2 mM NaH2PO4, and 0.04% (w/v) NaN3 with pH=7.35±0.05, osmolality=290 mOsmol/kg (by freezing point depression), and viscosity=20 cp (assumed). Osmo-scans were run by continuous addition of this suspension medium containing 100 μl of cells to a PVP solution with a graded salt concentration. Salt gradients were made by addition of high salt PVP solution with 386 mM NaCI (osmolality=750 mOsmol/kg) to a low salt PVP solution with 2.5 mM NaCl (osmolality=40 mOsmol/kg). Conductance measurements of the cell suspension in the viscometer provided an indirect measure of osmolality, which was calculated from a standard calibration curve.
Data was recorded onto a computer, and curves were fitted and plotted using custom routines in Matlab (The Math Works Inc, Natick, Mass.). Shear scans were fitted with a polynomial of degree 6 from which the maximum DI (DImax) was calculated. Osmo-scans were fitted with a running average, and DImax was calculated within the range of 180-240 mOsmol/Kg, along with the osmolality corresponding to 1/2DImax at hypertonic salt concentrations (0′), where DI decreases with increasing intracellular viscosity secondary to cell shrinkage and increased hemoglobin concentration (see Mohandas et al., J. Clin. Invest. 66563-73(1980)). The osmolality corresponding to the minimum DI (Omin) at hypotonic salt concentrations, where DI falls due to cell swelling, was also calculated. The height of the small DI peak thought to be associated with the sudden availability of excess membrane for deformation as intracellular ions and water are lost in the lower range of hypotonic salt (63-125 mOsmol/Kg) concentrations was also recorded (see Clark et al., Blood 61 899-910 (1983)).

erythrocytes [5] = assay: Assay of capacity for shape change (LPC-induced echinocytosis, microscopy); format: cell-based, human
Experimental: Microscopy. Cross-linked and reversed cells were prepared as described in the section on erythrocyte preparation, etc., with the addition of 0.5% bovine serum albumin to the solution prior microscopic examination. Cells were examined using an Nikon Optiphot, equipped with PlanApo 20×objective.
Assay of capacity for shape change. To induce echinocytosis ([…]), erythrocytes were incubated with 10μg/ml LPC for 2 min at room temperature. Erythrocytes were pretreated with 5 mM DTBP for 1 h and then subjected to 10 μg/ml LPC treatment. Microscopic examination of cell morphology was performed. Erythrocytes were pretreated with 5 mM DTBP for 1 h, reversed with 10 mM DTT for 20 min and then subjected to 10 μg/ml LPC treatment. Microscopic examination followed. Erythrocyte response to LPC of normal, cross-linked and reversed cells was compared.

Human erythrocytes [6] = assay: Osmotic fragility test; format: cell-based; settings: cells treated for 1 h with 5 mM DTBP, reversed with DTT
Experimental: An osmotic fragility test (a common clinical test) was performed on erythrocytes cross-linked with 5 mM DTBP for different incubation times and on erythrocytes cross-linked and reversed with DTT. Briefly, 1 ml of the erythrocyte suspension was taken out at regular incubation times, centrifuged, and DTBP or DTT was removed (Eppendorf centrifuge for 3 min at 3000×g). 1 ml of solutions containing buffered sodium sodium chloride at different concentrations (from 1% to 0.1% NaCl in phosphate buffer) were added to the packed cells. After 30 min the samples were centrifugated (Eppendorf centrifuge for 3 min at 3000×g), and the supernatants were processed for hemolysis measurements.

Human erythrocytes [7] = assay: cells; format: cell-based; settings: Homo sapiens, Erythrocyte, read-out: hemolysis in distilled water after cross-linking reversal
Experimental: Packed human erythrocytes from healthy donors were obtained from the National Naval Medical Center (Bethesda, Md.) within 48 h of donation and used within 7 days. Packed erythrocytes were washed twice in phosphate buffer solution (PBS) then re-suspended in PBS (1 vol PBS:1 vol packed cells). The erythrocyte suspension (100 ml) was placed on ice and carbon monoxide (CO) was bubbled through it for 2 hours. Saturation with CO (100%) was achieved under these conditions as detected with a CO-oximeter. Erythrocytes were packed and cross-linked with DTBP at 4° C. for different incubation times (from 1 to 24 h; 9 vol cross-linking solution: 1 vol packed cells). The cross-linking solution was prepared by dissolving DTBP in PBS (pH 7.8). After incubation DTBP was removed by repeated washing of the red cells in PBS (IEC Centra centrifuge for 10 min at 1008×g). Reversal of the cross-linking was carried out at room temperature with the reducing agent dithioerythritol (DTT) at a concentration of 10 mM in PBS (9 vol reducing solution: 1 vol packed cells) for 20 min or as indicated in the figure legends. DTT was removed by repeated washing of the red cells in PBS (IEC Centra centrifuge for 10 min at 1008×g). CO-treatment was reversed at room temperature using a hollow fiber membrane oxygenator model Capiox 308. Erythrocytes were processed through the oxygenator for 1 h. Saturation with oxygen (92%) was reached as detected with a CO-oximeter.
Erythrocytes were cross-linked with DTBP at different concentrations for different incubation times. 1 ml of the erythrocyte suspension was taken out at regular incubation times centrifuged and DTBP was removed (Eppendorf centrifuge for 3 min at 3000×g). Distilled water (1 ml) was added to the remaining packed cells. After 30 min the cells were again centrifugated (Eppendorf centrifuge for 3 min at 3000×g), and the supernatants were processed for hemolysis measurements. For determination of hemolysis the cyanmethemoglobin method was applied (see Brown in “Hematology: principles and procedures” pp. 29-31 (Lea and Febiger, eds., 1984)). Absorbance was measured at 540 nm and percent hemolysis was determined by Equation (1), supra, where the control sample was lysed in distilled water.
Erythrocyte stability in distilled water was tested after crosslinking reversal as well. Red blood cells were first cross-linked with DTBP then treated with DTT at different concentrations (from 1 to 10 mM) for different incubation times (from 5 to 20 min). Hemolysis in distilled water was measured as described above.

Human erythrocytes [8] = assay: Freeze-thaw damage (percentage hemolysis after freezing at −20° C.); format: cell-based; settings: 5 mM diamide for 1 h at room temperature; 1 h freezing at −20° C.; FIG. 2
Experimental: Erythrocytes pre-treated with diamide were frozen immediately or after 3 h of incubation in the freezing medium (glucose 200 mM, raffinose 139 mM, sodium citrate 33 mM, sodium phosphate dibasic 12 mM, sodium phosphate monobasic 2.9 mM, ammonium phosphate 40 mM, adenine 2 mM) to allow loading with glucose. Freezing was carried out at −20° C. in a freezer for […] and samples were thawed in a water bath at room temperature.
After completion of the freeze-thaw cycle samples were centrifugated. After centrifugation (Eppendorfcentrifuge for 3 min at 3000×g) the supernatants were processed for hemolysis measurements. For determination of hemolysis the Cyanmethemoglobin method was applied. Absorption was read at 540 nm using a Hewlett Packard spectrophotometer. Percentage hemolysis was determined by Equation 1, supra. Percentage hemolysis was taken as a measure for freeze-thaw damage.
Human erytirocytes were pre-treated at room temperature with 5 mM diamide for 1 h. After the incubation was completed the unreacted reagent was removed by a washing procedure and the cells were re-suspended in a freezing medium. Erythrocytes were frozen immediately or after three hours of incubation in the freezing medium to allow loading with glucose. Percentage hemolysis represents the freeze-thaw damage after 1 h freezing at −20° C. in a freezer.

[C-]#[O+] [CO, carbon monoxide]
oxygen content (Red cells): 0.7 Vol%O2
methemoglobin formation during freeze-drying (erythrocytes [1]): prevents hemoglobin oxidation to methemoglobin

O[C@H](CS)[C@@H](O)CS [DTT, dithioerythritol]
Relative filtration index (Human erythrocytes [2]; diamide-crosslinked cells, reversal of the cross-linking with 5 mM dithioerythritol): 0.83 ± 0.02
Relative filtration index (Human erythrocytes [2]; diamide-crosslinked cells, reversal of the cross-linking with 10 mM dithioerythritol): 0.90 ± 0.01
amount of ATP present after reversal (Red blood cells [3]): did not change the amount of ATP present
DImax and O′ after reversal (Red blood cells [4]): restored these indices towards normal values
Omin (osmolality corresponding to the minimum DI) (Red blood cells [4]): 128 mOsmol/Kg
reversal of shape stabilizing action of DTBP (erythrocytes [5]; 5 mM DTBP 1 h, 10 mM DTT 20 min, then 10 μg/ml LPC): completely reversible
reversal of the effect of DTBP on osmotic fragility (Human erythrocytes [6]): complete reversal
hemolysis at 10000 µM (Human erythrocytes [7]): 100%

CN(C)C(=O)/N=N/C(=O)N(C)C [diamide]
Relative filtration index (Human erythrocytes [2]; Crosslinking with 5 mM diamide, 5 μm pore filter): 0.71 ± 0.03
Percentage hemolysis (freeze-thaw damage) (Human erythrocytes [8]): cryoprotection of erythrocytes

lysolecithin [LPC]
shape change of normal red blood cells (erythrocytes [5]; 10 μg/ml LPC, normal cells): shape change from discocytes to echinocytes

From patent publication US6436705B1, “Shape stabilized erythrocytes” (The United States of America as represented by the …, priority 1997, dated 2002)
